From patent US10233183B1, “13-hydroxysparteine cinnamic acid derivatives with anti-tumor activities and a method of preparing the same” (SHAANXI UNIVERSITY OF SCIENCE AND TECHNOLOGY, priority 2018, dated 2019)

How the values were obtained:
Format in all cases: cell-based
[1] = tested on: non-small cell lung cancer cells (H1975); assay: MTT tumor cell proliferation inhibition test, H1975; details: Homo sapiens, NCI-H1975, 48 hours treatment, read-out: Half Inhibitory Concentration IC50, H1975
Excerpt: (§1) The compounds of the present invention were subjected to tumor cell proliferation inhibition test, and conventional MTT method was used. Cell lines used: non-small cell lung cancer cells (H1975), human hepatoma cells (HepG2), human glioma cells (U251), human gastric adenocarcinoma cells (AGS), human breast cancer cells (1590). The culture medium was DMEM+15% NBS+double antibody. […] Antitumor cytarabine (Ara-C) was used as control solution, prepared under the same condition. Cell culture: adherent growth Tumor cells were cultured in 1640 medium containing 10% inactivated neonatal bovine serum and penicillin, streptomycin (1 million U/L), placed in carbon dioxide incubator at 37° C., 5% CO2, and saturated humidity. Cells were treated serially passaged 2-3 times. The first culture was washed with PBS 2 times, and digested with trypsin. Fresh culture medium was added evenly, cells were adjusted to a appropriate concentration and transferred into a new culture flask. Cell in an exponential phase were chosen for the tests. MTT Assay for Cell Viability and IC50 Determination: Experimental Principle: Living cells mitochondria in the dehydrogenase can reduce yellow MTT to water-insoluble blue-violet product MT (MTT formazan), deposited in the cells. The amount of production is proportional to the number of living cells. […] DMSO can dissolve blue violet crystals, and the color depth is proportional to the amount contained, so the absorbance measured by the microplate reader can reflect the cell viability. Methods: The exponential phase cells were digested and counted and seeded in 96-well plates at a density of 2×10^4/mL at 100 μl per well. […] After another 4 hours, the supernatant was discarded, and 100 μl of DMSO was added to each well. After mixing, the absorbance was measured at 570 nm using a microplate reader. An IC50 calculation software was used to determine the half inhibitory concentration (IC50).

[2] = tested on: human hepatoma cells (HepG2); assay: MTT tumor cell proliferation inhibition test, HepG2; details: 48 hours treatment, read-out: Half Inhibitory Concentration IC50, HepG2
Excerpt: as §1

[3] = tested on: human glioma cells (U251); assay: MTT tumor cell proliferation inhibition test, U251; details: U-251, 48 hours treatment, read-out: Half Inhibitory Concentration IC50, U251
Excerpt: as §1

[4] = tested on: human gastric adenocarcinoma cells (AGS); assay: MTT tumor cell proliferation inhibition test, AGS; details: 48 hours treatment, read-out: Half Inhibitory Concentration IC50, AGS
Excerpt: as §1

[5] = tested on: human breast cancer cells (1590); assay: MTT tumor cell proliferation inhibition test, 1590; details: 48 hours treatment, 1590 cells, read-out: Half Inhibitory Concentration IC50, 1590
Excerpt: as §1

different cell lines = assay: MTT tumor cell proliferation inhibition test, overall verdict; details: summary in words of Table 1, different cell lines
Excerpt: as §1

| SMILES | IC50 [1] | IC50 [2] | IC50 [3] | IC50 [4] | IC50 [5] | in vitro antitumor activities (different cell lines) |
| --- | --- | --- | --- | --- | --- | --- |
| Cc1cccc(/C=C\C(=O)OC2CCN3[C@@H]4C[C@@H](C[C@@H]3C2)N2CCCC[C@@H]2C4)c1 (stereo partly drawn) [Compound J, (Z)-(6S,7aR,13S,14aR)-tetradecahydro-6,13-methanodipyrido[1,2-a:1′,2′-e][1,5]diazocin-2-yl 3-(m-tolyl)acrylate] | 65 ± 1.89 µM | 88.5 ± 1.26 µM | 74.6 ± 2.94 µM | > 100 µM | 65.43 ± 0.47 µM | – |
| Cc1ccccc1/C=C\C(=O)OC1CCN2[C@@H]3C[C@@H](C[C@@H]2C1)N1CCCC[C@@H]1C3 (stereo partly drawn) [Compound K, (Z)-(6S,7aR,13S,14aR)-tetradecahydro-6,13-methanodipyrido[1,2-a:1′,2′-e][1,5]diazocin-2-yl 3-(o-tolyl)acrylate] | 89.6 ± 1.34 µM | > 100 µM | > 100 µM | 69.81 ± 0.06 µM | > 100 µM | – |
| O=C(/C=C\c1ccc(Cl)cc1)OC1CCN2[C@@H]3C[C@@H](C[C@@H]2C1)N1CCCC[C@@H]1C3 (stereo partly drawn) [Compound M, (Z)-(6S,7aR,13S,14aR)-tetradecahydro-6,13-methanodipyrido[1,2-a:1′,2′-e][1,5]diazocin-2-yl 3-(4-chlorophenyl)acrylate] | > 100 µM | 26.8 ± 1.24 µM | 45.9 ± 1.82 µM | 55.54 ± 0.044 µM | 10.6 ± 1.33 µM | good in vitro antitumor activities |
| O=C(/C=C\c1cccc(O)c1)OC1CCN2[C@@H]3C[C@@H](C[C@@H]2C1)N1CCCC[C@@H]1C3 (stereo partly drawn) [Compound C, (Z)-(6S,7aR,13S,14aR)-tetradecahydro-6,13-methanodipyrido[1,2-a:1′,2′-e][1,5]diazocin-2-yl 3-(3-hydroxyphenyl)acrylate] | 23.7 ± 2.37 µM | 73.55 ± 0.49 µM | 5.49 ± 1.98 µM | 26.3 ± 1.48 µM | 43.2 ± 0.95 µM | good in vitro antitumor activities |
| O=C(/C=C\c1ccccc1)OC1CCN2[C@@H]3C[C@@H](C[C@@H]2C1)N1CCCC[C@@H]1C3 (stereo partly drawn) [Compound A, (Z)-(6S,7aR,13S,14aR)-tetradecahydro-6,13-methanodipyrido[1,2-a:1′,2′-e][1,5]diazocin-2-yl 3-phenylacrylate] | 16.9 ± 1.36 µM | 36.6 ± 3.01 µM | > 100 µM | 20.3 ± 1.12 µM | 32 ± 1.69 µM | good in vitro antitumor activities |
| COc1cc(/C=C\C(=O)OC2CCN3[C@@H]4C[C@@H](C[C@@H]3C2)N2CCCC[C@@H]2C4)cc(OC)c1O (stereo partly drawn) [Compound G, (Z)-(6S,7aR,13S,14aR)-tetradecahydro-6,13-methanodipyrido[1,2-a:1′,2′-e][1,5]diazocin-2-yl 3-(4-hydroxy-3,5-dimethoxyphenyl)acrylate] | 55.48 ± 0.48 µM | > 100 µM | 37 ± 1.24 µM | 59.4 ± 0.97 µM | > 100 µM | good in vitro antitumor activities |
| O=C(/C=C\c1ccc(O)cc1)OC1CCN2[C@@H]3C[C@@H](C[C@@H]2C1)N1CCCC[C@@H]1C3 (stereo partly drawn) [Compound B, (Z)-(6S,7aR,13S,14aR)-tetradecahydro-6,13-methanodipyrido[1,2-a:1′,2′-e][1,5]diazocin-2-yl 3-(4-hydroxyphenyl)acrylate] | > 100 µM | 53.69 ± 0.34 µM | 74.98 ± 0.49 µM | > 100 µM | > 100 µM | – |
| COc1cc(/C=C\C(=O)OC2CCN3[C@@H]4C[C@@H](C[C@@H]3C2)N2CCCC[C@@H]2C4)ccc1O (stereo partly drawn) [Compound F, (Z)-(6S,7aR,13S,14aR)-tetradecahydro-6,13-methanodipyrido[1,2-a:1′,2′-e][1,5]diazocin-2-yl 3-(4-hydroxy-3-methoxyphenyl)acrylate] | > 100 µM | > 100 µM | > 100 µM | > 100 µM | 88.6 ± 2.12 µM | – |
| Cc1ccc(/C=C\C(=O)OC2CCN3[C@@H]4C[C@@H](C[C@@H]3C2)N2CCCC[C@@H]2C4)cc1 (stereo partly drawn) [Compound H, (Z)-(6S,7aR,13S,14aR)-tetradecahydro-6,13-methanodipyrido[1,2-a:1′,2′-e][1,5]diazocin-2-yl 3-(p-tolyl)acrylate] | 29.9 ± 1.59 µM | 51.1 ± 1.44 µM | 75.4 ± 0.897 µM | 35.7 ± 2.58 µM | > 100 µM | good in vitro antitumor activities |
| O=C(/C=C\c1ccc(O)c(O)c1)OC1CCN2[C@@H]3C[C@@H](C[C@@H]2C1)N1CCCC[C@@H]1C3 (stereo partly drawn) [Compound E, (Z)-(6S,7aR,13S,14aR)-tetradecahydro-6,13-methanodipyrido[1,2-a:1′,2′-e][1,5]diazocin-2-yl 3-(3,4-dihydroxyphenyl)acrylate] | 43.1 ± 1.24 µM | > 100 µM | 42.2 ± 0.88 µM | > 100 µM | 36.2 ± 1.98 µM | good in vitro antitumor activities |
| Cc1cc(/C=C\C(=O)OC2CCN3[C@@H]4C[C@@H](C[C@@H]3C2)N2CCCC[C@@H]2C4)ccc1O (stereo partly drawn) [Compound I, (Z)-(6S,7aR,13S,14aR)-tetradecahydro-6,13-methanodipyrido[1,2-a:1′,2′-e][1,5]diazocin-2-yl 3-(4-hydroxy-3-methylphenyl)acrylate] | > 100 µM | 58.7 ± 1.78 µM | 66.9 ± 1.84 µM | 32.59 ± 0.29 µM | > 100 µM | good in vitro antitumor activities |
| Nc1ccn([C@@H]2O[C@H](CO)[C@@H](O)[C@@H]2O)c(=O)n1 [Ara-C, cytarabine, reference compound] | 19.2 ± 0.39 µM | 20.6 ± 0.54 µM | 39.2 ± 0.54 µM | > 100 µM | 76.3 ± 2.48 µM | – |
